Source: patent US8481678B2, “Peptide-based tooth whitening reagents” (E I du Pont de Nemours and Company, priority 2009, dated 2013)

Key:
[1] = system: pellicle-coated HAP disks (tooth pellicle); assay: Phage ELISA on pellicle-coated HAP disks; format: binding, human; conditions: over 10^10 pfu phage, TBST-0.5% washes, no-phage control 0.218
Source text: A total of 20 selected phage candidates (Example 1) were used in a phage ELISA experiment. Purified phage lysates were used for binding to pellicle-coated HAP disks using an anti-M13 phage antibody conjugated to horseradish-peroxidase, followed by the addition of chromogenic agent TMB (3,3′,5,5′-tetramethylbenzidine), obtained from Pierce Biotechnology (Item #34021; Rockford, Ill.). The plates were read at A450 nm.
For each phage candidate to be tested, the pellicle-coated HAP disks (3 mm diameter) was incubated for 1 h at room temperature with 200 μL of blocking buffer, consisting of 2% non-fat dry milk (Schleicher & Schuell, Inc.) in TBS. […] The tube was rinsed 6 times with wash buffer consisting of TBST-0.05%. The wells were filled with 200 μL of TBST-0.5% containing 1 mg/mL BSA (bovine serum albumin) and then 10 μL (over 10^10 pfu) of purified phage stock was added. The samples were incubated at room temperature for 60 min with slow shaking. The non-binding phage were removed by washing 6 times with TBST-0.5%. Then, 100 μL of horseradish peroxidase/anti-M13 antibody conjugate (Amersham USA, Piscataway, N.J.), diluted 1:500 in the blocking buffer, was added and incubated for 1 hour at room temperature. The conjugate solution was removed and was washed 6 times with TBST-0.5%.

[2] = system: pellicle coated bovine enamel; assay: Phage ELISA on pellicle-coated bovine enamel (30 min in vivo pellicle), Example 13; format: binding, human; conditions: 10^11 pfu, 30 min at 37° C., normalized to an internal control
Description: A total of 29 selected phage candidates from Table 14 were used in phage ELISA Experiment to determine binding affinity and coverage of each phage on pellicle substrates. Purified phage lysates were used for binding to pellicle coated bovine enamel using an anti-M13 phage antibody conjugated to horseradish-peroxidase, followed by the addition of chromogenic agent TMB, obtained from Pierce Biotechnology (Rockford, Ill.). The plates were read at A450nm.
The wells were filled with 1 mL of 10^11 pfu purified phage stock which was prepared by diluting in blocking buffer. […] The non-binding phage was removed by washing 5 times with PBST. […] The conjugate solution was removed and was washed 3 times with PBST.

| Sequence | O.D. at 450 nm [1] | O.D. at 450 nm (normalized) [2] |
| --- | --- | --- |
| ASVSNYPPIHHLATSNTTVN (Tooth-binding peptide) [Pell 2] | 0.75 | – |
| DPNESNYENATTVSQPTRHL (Tooth-binding peptide) [Pell 7] | 0.831 | – |
| TMTNHVYNSYTEKHSSTHRS (Synthetic oral-surface binding peptide) [DenP 02] | – | 1.951 |
| WCTDFCTRSTPTSTSRSTTS (Tooth-binding peptide) [Pell 20] | 0.715 | – |
| VNPNWVETQALHQPPGNT (Synthetic oral-surface binding peptide) [DenP 20] | – | 1.298 |
| HKNAIQPVNDATTLDTTM (Synthetic oral-surface binding peptide) [DenP 09] | – | 1.364 |
| DHNNRQHAVEVRENKTHTAR (Synthetic oral-surface binding peptide) [DenP 21] | – | 0.728 |
| SEARARTFNDHTTPMPII (Synthetic oral-surface binding peptide) [DenP 14] | – | 2.498 |
| DLCSMQMMNTGCHY (Tooth-binding peptide) [Pell 5] | 0.83 | – |
| DLCSSPSTWGSCIR (Tooth-binding peptide) [Pell 6] | 0.735 | – |
| DLGTFPNRTLKMAAH (Synthetic oral-surface binding peptide) [DenP 11] | – | 1.663 |
| QVPDYLSPTHQKKAFLEIPT (Synthetic oral-surface binding peptide) [DenP 29] | – | 0.976 |
| DECMEPLNAAHCWR (Tooth-binding peptide) [Pell 3] | 0.49 | – |
| GPQHVLMQDTHQGYAFDN (Synthetic oral-surface binding peptide) [DenP 16] | – | 2.190 |
| ELDHDSRHYMNGLQRKVT (Synthetic oral-surface binding peptide) [DenP 15] | – | 1.112 |
| NPTATPHMKDPMHSNAHSSA (Tooth-binding peptide) [Pell 14] | 0.7 | – |
| NGNNHTDIPNRSSYTGGSFA (Synthetic oral-surface binding peptide) [DenP 01] | – | 1.002 |
| EPTHPTMRAQMHQSLRSSSP (Tooth-binding peptide) [Pell 8] | 0.712 | – |
| VEPATKNMREARSSTQMRRI (Synthetic oral-surface binding peptide) [DenP 04] | – | 1.421 |
| IPWWNIRAPLNAGGG [Control, reference compound] | – | 1.000 |
| GNTDTTPPNAVMEPTVQHKW (Tooth-binding peptide) [Pell 9] | 0.755 | – |
| QHCITERLHPPCTK (Tooth-binding peptide) [Pell 17] | 0.614 | – |
| HKNENIMQYNVNDRWHITPA (Synthetic oral-surface binding peptide) [DenP 32] | – | 1.441 |
| TTGSSSQADTSASMSIVPAH (Synthetic oral-surface binding peptide) [DenP 17] | – | 0.971 |
| GMPTRYYHNTPPHLTPKF (Synthetic oral-surface binding peptide) [DenP 08] | – | 1.182 |

| Sequence | O.D. at 450 nm [1] | O.D. at 450 nm (normalized) [2] |
| --- | --- | --- |
| APPTYQTASYPHNLPSKRKM (Synthetic oral-surface binding peptide) [DenP 28] | – | 1.203 |
| KAPIANMLQPHSYQYSVA (Synthetic oral-surface binding peptide) [DenP 18] | – | 1.143 |
| NPTDSTHMMHARNHE (Tooth-binding peptide) [Pell 16] | 0.578 | – |
| NPTDHIPANSTNSRVSKGNT (Tooth-binding peptide) [Pell 15] | 0.567 | – |
| EFPYYNDNPPNPERHTLR (Synthetic oral-surface binding peptide) [DenP 07] | – | 1.500 |
| TPCAPASFNPHCSR (Tooth-binding peptide) [Pell 18] | 0.416 | – |
| FDGIGLGTATRHQNR (Synthetic oral-surface binding peptide) [DenP 12] | – | 2.079 |
| NGPDMVQSVGKHKNS (Tooth-binding peptide) [Pell 10] | 0.729 | – |
| TPCATYPHFSGCRA (Tooth-binding peptide) [Pell 19] | 0.731 | – |
| ANELSTYAQTNPGSG (Synthetic oral-surface binding peptide) [DenP 25] | – | 0.909 |
| AHPESLGIKYALDGNSDPHA (Tooth-binding peptide) [Pell 1] | 0.739 | – |
| NGPEVRQIPANFEKL (Tooth-binding peptide) [Pell 11] | 0.607 | – |
| NNTSADNPPETDSKHHLSMS (Tooth-binding peptide) [Pell 12] | 0.521 | – |
| SNATMYNIQSHSHHQ (Synthetic oral-surface binding peptide) [DenP 24] | – | 0.979 |
| IYPNESMSTSNVRGPYHP (Synthetic oral-surface binding peptide) [DenP 22] | – | 1.420 |
| TNDLHANPFTGTYIAPDPTS (Synthetic oral-surface binding peptide) [DenP 30] | – | 1.082 |
| TYQGVPSWPAVIDDAIRR (Synthetic oral-surface binding peptide) [DenP 19] | – | 1.052 |
| DTIHPNKMKSPSSPL (Synthetic oral-surface binding peptide) [DenP 26] | – | 1.039 |
| NNTWPEGAGHTMPSTNIRQA (Tooth-binding peptide) [Pell 13] | 0.598 | – |
| AVVPADLNDHANHLS (Synthetic oral-surface binding peptide) [DenP 10] | – | 1.619 |
| QAAQVHMMQHSRPTT (Synthetic oral-surface binding peptide) [DenP 13] | – | 0.845 |
| DECMHGSDVEFCTS (Tooth-binding peptide) [Pell 4] | 0.664 | – |
| HDPNHLTHQARTIYRNANHT (Synthetic oral-surface binding peptide) [DenP 23] | – | 1.236 |
| YLLPKDQTTAPQVTPIVQHK (Synthetic oral-surface binding peptide) [DenP 05] | – | 1.087 |
